Values quoted from earlier work in patent US7610153B2, “Multi-drug titration and evaluation” (Virginia Commonwealth University, priority 2002, dated 2009).

Details: literature

CN(C)C(=N)N=C(N)N [metformin]
hypoglycemia: does not cause hypoglycemia | decrease in fasting and postprandial glycemia (type 2 diabetes): 60 to 70 mg/dL
